Consider 30 molecules from patent US5591749A, “Imidazopyridines as serotonergic 5-HT3 -antagonists” (G. D. Searle & Co., priority 1995, dated 1997).

One assay deals with T1, 5-HT3 receptor (Rattus norvegicus, UniProt P35563).
T1 construct: Brain cortices are obtained from male rats and a membrane fraction prepared by standard techniques; from tissue; host or cells: rat brain cortex membranes
T1 sequence (P35563 24-483): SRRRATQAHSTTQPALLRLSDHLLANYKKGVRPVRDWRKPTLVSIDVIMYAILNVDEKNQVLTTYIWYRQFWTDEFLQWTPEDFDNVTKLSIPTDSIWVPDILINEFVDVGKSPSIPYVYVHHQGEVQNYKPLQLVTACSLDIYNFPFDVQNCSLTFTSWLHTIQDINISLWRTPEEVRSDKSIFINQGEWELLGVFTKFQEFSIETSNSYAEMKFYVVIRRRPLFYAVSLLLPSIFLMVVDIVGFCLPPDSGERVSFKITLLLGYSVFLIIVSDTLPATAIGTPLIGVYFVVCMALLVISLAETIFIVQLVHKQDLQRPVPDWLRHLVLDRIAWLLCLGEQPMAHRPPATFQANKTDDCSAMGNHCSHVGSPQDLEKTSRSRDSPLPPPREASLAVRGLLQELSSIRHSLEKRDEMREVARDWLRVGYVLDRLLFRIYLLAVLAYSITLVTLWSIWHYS
As to the kind of experiment: [3H]-GR65630 radioligand receptor binding assay, rat brain cortex membranes. Particulars: for Hill Coefficient: 0.2 nM [3H]-GR65630. The protocol:
(§1) 5-HT3 antagonism can be determined by the radioligand receptor binding assay as described herein and in the in vivo Bezold-Jarisch reflex procedure.
GR65630 binds to the 5-HT3 receptor. Brain cortices are obtained from male rats and a membrane fraction prepared by standard techniques. 0.04 mg of membrane prep is incubated with 0.2 nM [^3 H]-GR656630 for 60 minutes at 22° C. […] Membranes are filtered and washed 3 times and the filters are counted to determine [3H]-GR65630 specifically bound.*
Effect of Reference Compounds on
Kilpatrick GJ, Jones BJ and Tyers MB. Identification and distribution of 5-HT3 receptors in rat brain using radioligand binding. Nature, 330: 746-748, 1987.

The target in the next assay is T2, 5-HT3 (Mus musculus, UniProt P23979).
T2 construct: NG108-15 Cells; endogenous in cells; host or cells: NG108-15 cells
T2 sequence (P23979 24-489): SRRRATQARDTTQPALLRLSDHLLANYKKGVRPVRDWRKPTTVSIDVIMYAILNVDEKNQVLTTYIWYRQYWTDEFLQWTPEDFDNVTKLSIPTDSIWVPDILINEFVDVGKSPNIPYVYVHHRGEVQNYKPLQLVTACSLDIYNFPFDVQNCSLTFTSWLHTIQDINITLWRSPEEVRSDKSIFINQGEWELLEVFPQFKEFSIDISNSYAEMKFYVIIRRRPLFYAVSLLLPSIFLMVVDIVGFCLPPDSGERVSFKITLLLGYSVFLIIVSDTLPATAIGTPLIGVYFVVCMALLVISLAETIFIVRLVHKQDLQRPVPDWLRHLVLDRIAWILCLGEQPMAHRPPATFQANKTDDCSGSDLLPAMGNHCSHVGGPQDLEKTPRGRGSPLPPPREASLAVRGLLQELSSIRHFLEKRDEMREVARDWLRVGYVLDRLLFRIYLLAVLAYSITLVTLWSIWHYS
Briefly: 5-HT3 binding, NG108-15 cells.
Source text: as §1

For another assay, the system named is 5-HT-induced bradycardia. Briefly: Bezold-Jarisch reflex (5-HT-induced bradycardia) in pentobarbital anesthetized mice. The class given is in vivo. The protocol:
as §1
The test sample is administered i.p. (mg/kg) to a group of 3 mice. […] A greater than 50 percent (>50) reduction in the bradycardic response relative to vehicle-treated control mice is considered significant.
This method has been described by Saxena, P. R. and Lawang, A., Arch. Int. Pharmacodyn., 277:235-252, 1985.

Where [1] appears, read: several examples have two IC50 values, read-out: 5-HT3 binding: NG108-15 cells IC50.
Where [2] appears, read: Mus musculus, ip, 0.5 h, read-out: Minimum Effective Dose (MED).
[3] abbreviates: Mus musculus, ip, 0.5 h; read-out: Minimum Effective Dose (MED).

Each structure is given as a SMILES string. “And” between values parts separate entries of the source, which are not always exact repeats. Equal values may be shown once. Where a name gives a salt, the structure may show the parent alone. Read-outs that look alike come from different tables or passages of the source.

On to `CN1[C@@H]2CC[C@H]1C[C@@H](OC(=O)c1c[nH]c3ccccc13)C2` [ICS 205-930], for which the “Hill Coefficient” value at 5-HT3 receptor came out at 1.0.

Usually Ki stands for the dissociation constant of the complex between target and ligand, obtained from inhibition or displacement. Usually IC50 stands for the midpoint of a concentration-inhibition curve. `O=C(N[C@H]1[C@H]2C[C@@H]3CN(C2)C[C@@H]31)c1cccn2ccnc12` (relative stereo) [Example 10, (±)-endo-N-(Hexahydro-1H-2,5β-methano-3aα,6aα-cyclopenta[c]pyrrol-4α-yl)imidazo[1,2-a]pyridine-8-carboxamide, hydrochloride] gave a Ki at 5-HT3 of 0.122 µM. Further, the IC50 at 5-HT3 (setting [1]) is 0.2 µM and 0.243 µM. Also, the “Bezold Jarisch reflex (mice); % Inhibition @ Dose (IP)” value in the assay on 5-HT-induced bradycardia (10 mg/kg i.p.) is listed as 81%. `c1ccc2nc(N3CCNCC3)ccc2c1` [Quipazine]: at 5-HT3 receptor, the “Hill Coefficient” value came out at 0.86. `Cl.Cl.O=C(NC1CCN2CCCC1C2)c1cccn2ccnc12` (stereo not drawn) [Example 2, endo-N-(1-Azabicyclo[3.3.1]nonan-4-yl)imidazo[1,2-a]pyridine-8-carboxamide, dihydrochloride]: the results for the “Bezold Jarisch reflex (mice); % Inhibition @ Dose (IP)” value in the assay with 5-HT-induced bradycardia (5 mg/kg i.p.) and in the assay with 5-HT-induced bradycardia (10 mg/kg i.p.) were 1% and 53%, respectively. Turning to `CCN(CC)CCNC(=O)c1cc(Cl)c(N)cc1OC` [metoclopramide, reference compound], the minimal effective dose in the assay with 5-HT-induced bradycardia (setting [2]) worked out at 5 mg/kg.

`Cc1nccn1CC1CCc2c(c3ccccc3n2C)C1=O` (stereo not shown) [GR-38032, reference compound]: the minimal effective dose with 5-HT-induced bradycardia (setting [3]) amounted to 0.5 mg/kg. In the case of `O=C(NC1C2CC3CC1CN(C3)C2)c1cc(Cl)cn2ccnc12` (stereo not drawn) [Example 11, exo-N-(1-azatricyclo[3.3.1.1^3,7]decan-4-yl)-6-chloroimidazo[1,2-a]pyridine-8-carboxamide, monohydrochloride], the IC50 at 5-HT3 (setting [1]) is more than 0.1 µM. For `CCc1nc(C(=O)N[C@H]2[C@H]3C[C@@H]4CN(C3)C[C@@H]42)c2ccccn12` (relative stereo) [Example 16, (±)-endo-N-(Hexahydro-1H,2,5β-methano-3aα,6aα-cyclopenta[c]pyrrol-4α-yl)-3-ethylimidazo[1,5-a]pyridine-1-carboxamide, monohydrochloride], at 5-HT3 (setting [1]), the IC50 was determined as 0.03 µM. In the case of `CN1[C@@H]2C[C@@H](OC(=O)[C@H](CO)c3ccccc3)C[C@H]1[C@@H]1O[C@@H]12` [scopolamine, reference compound], the minimal effective dose with 5-HT-induced bradycardia (setting [2]) came out at 2.5 mg/kg.

On 5-HT3, `CN1[C@@H]2CC[C@H]1C[C@@H](NC(=O)c1cc(Cl)cn3ccnc13)C2` [Example 3, endo-N-(8-Methyl-8-azabicyclo [3.2.1]octan-3-yl)-6-chloroimidazo[1,2-a]pyridine-8-carboxamide, dihydrochloride] gave a Ki of 0.05 µM. Moreover, the IC50 on 5-HT3 (setting [1]) is 0.0193 µM and 0.099 µM. On to `CCN(CC)CCNC(=O)c1cccn2ccnc12` [Example 12, N-[2-(Diethylamino)ethyl]imidazo[1,2-a]pyridine-8-carboxamide], for which the IC50 at 5-HT3 (setting [1]) came out at 0.017 µM. For `O=c1[nH]c2ccccc2n1CCCN1CCC(n2c(=O)[nH]c3cc(Cl)ccc32)CC1` [domperidone, reference compound], in the assay with 5-HT-induced bradycardia (setting [2]), the minimal effective dose is more than 10 mg/kg.

`CN1[C@@H]2CC[C@H]1C[C@@H](NC(=O)c1cccn3ccnc13)C2` [Example 4, endo-N-(8-methyl-8-azabicyclo[3.2.1]octan-3-yl)imidazo [1,2-a]pyridine-8-carboxamide, hydrochloride]: on 5-HT3, the Ki amounted to 0.416 µM. The half-maximal inhibitory concentration (IC50) at 5-HT3 (setting [1]) is 0.5 µM and 0.831 µM. Moreover, the entries for the “Bezold Jarisch reflex (mice); % Inhibition @ Dose (IP)” value in the assay on 5-HT-induced bradycardia (3 mg/kg i.p.) and with 5-HT-induced bradycardia (10 mg/kg i.p.) were 2% and 82%, respectively. Turning to `CNC1(C)C2CCC(C2)C1(C)C` (stereo not shown) [mecamylamine, reference compound], the minimal effective dose with 5-HT-induced bradycardia (setting [3]) stood at 2.5 mg/kg. Take `CN1[C@@H]2CC[C@H]1C[C@H](NC(=O)c1cccn3ccnc13)C2` [Example 5, exo-N-(8-methyl-8-azabicyclo[3.2.1]octan-3-yl)imidazo[1,2-a]pyridine-8-carboxamide, hydrochloride]: the affinity on 5-HT3 corresponds to a Ki of 0.314 µM. Also, at 5-HT3 (setting [1]), the half-maximal inhibitory concentration (IC50) was 0.475 µM and 0.628 µM. Moreover, the “Bezold Jarisch reflex (mice); % Inhibition @ Dose (IP)” value with 5-HT-induced bradycardia (10 mg/kg i.p.) came to 80%. For the molecule `CO[C@@H]1CN(CCCOc2ccc(F)cc2)CC[C@@H]1NC(=O)c1cccn2ccnc12` (relative stereo) [Example 13, Cis-N-[[3-(4-Fluorophenoxy)propyl]-3-methoxy-4piperidinylamine]imidazo[1,2-a]pyridine-8-carboxamide], in the assay with 5-HT-induced bradycardia (10 mg/kg i.p.), the “Bezold Jarisch reflex (mice); % Inhibition @ Dose (IP)” value was 23%. For `O=C(NC1CN2CCC1CC2)c1cccn2ccnc12` (stereo not shown) [Example 8, N-(1-Azabicyclo[2.2.2]octan-3-yl)imidazo[1,2-a]pyridine-8-carboxamide, dihydrochloride], at 5-HT3 (read-out: 5-HT3 binding: NG108-15 cells IC50, several examples have two IC50 values), the concentration for half-maximal inhibition (IC50) came to 0.07 µM. Moreover, the “Bezold Jarisch reflex (mice); % Inhibition @ Dose (IP)” value amounted to 82% in the assay on 5-HT-induced bradycardia (0.5 mg/kg i.p.), 88% in the assay with 5-HT-induced bradycardia (2.5 mg/kg i.p.), 95% with 5-HT-induced bradycardia (5 mg/kg i.p.) and 100% in the assay with 5-HT-induced bradycardia (10 mg/kg i.p.). Regarding `COc1cc(N)c(Cl)cc1C(=O)NC1CN2CCC1CC2` (stereo not shown) [Zacopride], the “Hill Coefficient” value on 5-HT3 receptor stood at 0.86. Take `O=C(c1ccc(F)cc1)C1CCN(CCn2c(=O)[nH]c3ccccc3c2=O)CC1` [ketanserin, reference compound]: in the assay on 5-HT-induced bradycardia (setting [3]), the minimal effective dose was more than 10 mg/kg.

Consider `CN1[C@@H]2CCC[C@H]1C[C@@H](NC(=O)c1cc(Cl)cn3ccnc13)C2` [Example 6, endo-N-(9-Methyl-9-azabicyclo[3.3.1]nonan-3-yl)-6-chloroimidazo[1,2-a]pyridine-8-carboxamide hydrochloride], for which, at 5-HT3, the inhibitory constant (Ki) worked out at 0.0049 µM. Regarding `COc1ccc2[nH]cc(C3=CCNCC3)c2c1` [RU24969], the “Hill Coefficient” value at 5-HT3 receptor was found to be 1.0. In the case of `COc1cc(N)c(Cl)cc1C(=O)NC1CCN(CCCOc2ccc(F)cc2)CC1OC` (stereo not shown) [cisapride, reference compound], the minimal effective dose in the assay with 5-HT-induced bradycardia (setting [3]) is 5 mg/kg. At 5-HT3 receptor ([3H]-GR65630, rat cortex membranes), `Cc1[nH]cnc1CCC(=O)c1cn(C)c2ccccc12` [GR65630] had a Bmax of 154 fmol/mg protein. Moreover, the “Specific Binding” value on 5-HT3 receptor ([3H]-GR65630, non-specific binding with 1 uM ICS 205-930) was found to be 70. As for `CCc1cc(C(=O)N[C@H]2[C@H]3C[C@@H]4CN(C3)C[C@@H]42)c2ccccn12` (relative stereo) [Example 15, (±)-endo-N-(Hexahydro-1H-2,5β-methano-3aα,6aα-cyclopenta[c]pyrrol-4aα-yl)-3-ethylindolizine-1-carboxamide monohydrochloride], the IC50 on 5-HT3 (setting [1]) was determined as 0.0263 µM. On to `CN1CCC(=C2c3ccccc3C=Cc3ccccc32)CC1` [cyproheptadine, reference compound], for which the minimal effective dose with 5-HT-induced bradycardia (setting [3]) turned out to be 5 mg/kg. On 5-HT3, `O=C(N[C@H]1CCN2CCC[C@@H]1C2)c1cc(Cl)cn2ccnc12` (relative stereo) [Example 1, endo-N-(1-Azabicyclo[3.3.1]nonan-4-yl)-6-chloroimidazo[1,2-a]pyridine-8-carboxamide, dihydrochloride] yielded a Ki of 0.137 µM. Besides, the figures for the “Bezold Jarisch reflex (mice); % Inhibition @ Dose (IP)” value in the assay with 5-HT-induced bradycardia (1 mg/kg i.p.), with 5-HT-induced bradycardia (3 mg/kg i.p.) and in the assay on 5-HT-induced bradycardia (10 mg/kg i.p.) were 68%, 73% and 87%, respectively. As to `CN1C2CCCC1CC(NC(=O)c1nn(C)c3ccccc13)C2` (stereo not shown) [BRL-43694, reference compound], in the assay with 5-HT-induced bradycardia (setting [2]), the minimal effective dose came out at 0.05 mg/kg.

On to `O=C(N[C@H]1[C@H]2C[C@@H]3CN(C2)C[C@@H]31)c1cc(Cl)cn2ccnc12` (relative stereo) [Example 9, (±)-endo-N-(Hexahydro-1H-2,5β-methano-3aα,6aα-cyclopenta[c]pyrrol-4α-yl)-6-chloroimidazo[1,2-a]pyridine-8-carboxamide, monohydrochloride], for which, at 5-HT3, the inhibition constant Ki was found to be 0.064 µM. Also, at 5-HT3 (setting [1]), the IC50 was 0.016 µM and 0.127 µM. Take `CC[C@@H](CO)NC(=O)[C@@H]1C=C2c3cccc4c3c(cn4C)C[C@H]2N(C)C1` [methysergide, reference compound]: the minimal effective dose with 5-HT-induced bradycardia (setting [2]) was more than 10 mg/kg. Take `O=C(NC1CN2CCC1CC2)c1cc(Cl)cn2ccnc12` (stereo not shown) [Example 7, N-(1-Azabicyclo[2.2.2]octan-3-yl)-6-chloroimidazo[1,2-a]pyridine-8-carboxamide dihydrochloride]: at 5-HT3, the Ki amounted to 0.012 µM. Moreover, the IC50 on 5-HT3 (setting [1]) is 0.0175 µM and 0.023 µM.
